How the values were obtained:
B16 Melanoma [1] = experiment: Survival of B16 melanoma bearing mice (DFMO, norspermidine); type: in vivo; details: B16 i.p.; Norspermidine i.p. 50 mg/kg/day day 1 to 7; DFMO 2% in drinking water
Protocol: 1 x 10^5 B16 melanoma cells per animal were injected i.p. on day 0. Drug treatments were started on day 1. DFMO was administered as a 2% solution in drinking water (approximately 3 g/kg based on fluid intake). Norspermidine was administered i.p. at 50 mg/kg/day starting day 1 to 7. [formula]

L1210 Leukemia [2] = experiment: Polyamine levels of L1210 leukemia cells collected from treated mice; type: in vivo; details: L1210 cells collected on day 4; Norspermidine i.p. 50 mg/kg/day; DFMO 2% in drinking water
Protocol: (§1) 1 x 10^5 L1210 leukemic cells per animal were innoculated i.p. on day 0 and drug treatments were started on day 1. DFMO was administered as 2% solution in drinking water (approximately 3 g/kg based on fluid intake). Norspermidine was administered i.p. at 50 mg/kg/day from day 1 to 7. Polyamine concentrations were determined on cells collected from treated and control animals on day 4. ND: not detectable; [formula]

Lewis Lung Tumor (3LL) = experiment: Growth of Lewis lung tumor (3LL) in mice (DFMO, norspermidine); type: in vivo; details: 3LL s.c.; Norspermidine i.p. 50 mg/kg/day day 1 to 14; DFMO 2% in drinking water; tumors weighed at end of 18 days
Protocol: 1 x 10^5 3LL cells per animal were injected s.c. in the intrascapular region of the mice on day 0. Drug treatments were started on day 1. DFMO was administered as a 2% solution in drinking water (approximately 3 g/kg based on fluid intake). Norspermidine was administered i.p. 50 mg/kg/day from day 1 to 14. At the end of 18 days, animals were sacrificed, tumors disected and weighed.

L1210 Leukemia [3] = experiment: Survival of mice with L1210 leukemia (norspermidine, DFMO); type: in vivo; details: Norspermidine i.p. 50 mg/kg/day day 1 to 7; DFMO 2% solution in drinking water (approximately 3 g/kg)
Protocol: as §1

[4] = system: Human Cervical Cancer (HeLa); experiment: Growth of HeLa cells in culture (N,N'-bis(3-aminopropyl)-1,8-octanediamine); type: cell-based; details: 72 hours, 37°C
Protocol: (§2) HeLa cells and B16 melanoma cells were plated at a density of 1 x 10^5/plate (35 mm) and incubated overnight. Different concentrations of the compound in regular medium --were added and cell growth was determined after 72 hours of incubation at 37°C.

Lewis Lung Carcinoma = experiment: Antitumor activity against Lewis lung carcinoma in mice, tumor weight; type: in vivo; details: day 1-10, tumor cells s.c., sacrificed on day 15
Protocol: (§3) 1 x 10^5 tumor cells/animal were inoculated s.c. on day 0 and the drug treatments were started on day 1. "N,N'-bis (3-aminopropyl)-1, 8-octanediamine was administered at different doses from day 1-10. The animals were sacrificed on day 15 and the tumors were dissected and weighed.

L1210 Leukemia [5] = experiment: Antitumor activity against L1210 leukemia in mice, survival (N,N'-bis(3-aminopropyl)-1,8-octanediamine); type: in vivo
Protocol: Treatment Survival (Days) % T/C Control 7.5 ^± 0.5 Compound 25 mg/kg^* 16.0 ^± 1.5 213.3 6.26 mg/kg^** 27 ^± 3.0 360.0 1 x 10^5 L1210 leukemic cells/animal were inoculated i.p. on day 0 and drug treatments were started as follows: * N,N'-bis(3-aminopropyl)-1,8-octanediamine was administered i.p. at 25 mg/Kg/day. from day 1-7. ^** The compound was administered i.p. at 6.25 mg/kg 4 times a day, every three hours starting at 8:30 a.m. to 5:30 p.m. from days 3-7. [formula]

B16 Melanoma [6] = experiment: Antitumor activity against B16 melanoma in mice, tumor weight; type: in vivo; details: day 1-10, tumor cells s.c., sacrificed on day 15
Protocol: as §3

[7] = system: Mouse Melanoma (B16) Cells; experiment: Growth of B16 melanoma cells in culture (N,N'-bis(3-aminopropyl)-1,8-octanediamine); type: cell-based; details: 72 hours, 37°C
Protocol: as §2

HeLa Cells [8] = experiment: Polyamine levels of HeLa cells in culture (norspermidine); type: cell-based, Human
HeLa Cells [9] = experiment: Growth and mitotic index of HeLa cells in culture (norspermidine); type: cell-based, Human; details: 72 hours, 37°C

NCCC[C@](N)(C(=O)O)C(F)F [DFMO, α-difluoromethyl ornithine, reference compound]
% T/C (B16 Melanoma [1]): 129% | Survival (B16 Melanoma [1]): 17.5 days | Polyamine Concentration Putrescine (L1210 Leukemia [2]): 0.015 n·moles/10^6 cells | Polyamine Concentration Spermidine (L1210 Leukemia [2]): 0.84 n·moles/10^6 cells | Polyamine Concentration Spermine (L1210 Leukemia [2]): 1.18 n·moles/10^6 cells | % Inhibition (Lewis Lung Tumor (3LL)): 4% | Tumor Weight (gr) (Lewis Lung Tumor (3LL)): 4.92 gr | % T/C (L1210 Leukemia [3]): 107% | Survival (L1210 Leukemia [3]): 8.0 days

NCCCNCCCCCCCCNCCCN [N,N'-bis(3-aminopropyl)-1,8-octanediamine]
HeLa Cells Cell No. x 10^5 ([4]; 0.001 mM): 7.56 x 10^5 | HeLa Cells Cell No. x 10^5 ([4]; 0.01 mM): 5.9 x 10^5 | HeLa Cells Cell No. x 10^5 ([4]; 0.1 mM): 4.56 x 10^5 | HeLa Cells Cell No. x 10^5 ([4]; 1.0 mM): 2.82 x 10^5 | inhibition at 1 µM ([4]; Homo sapiens, HeLa, 0.001 mM, read-out: HeLa Cells % Inh. of Cell Growth): 39% | inhibition at 10 µM ([4]; Homo sapiens, HeLa, 0.01 mM, read-out: HeLa Cells % Inh. of Cell Growth): 50% | inhibition at 100 µM ([4]; Homo sapiens, HeLa, 0.1 mM, read-out: HeLa Cells % Inh. of Cell Growth): 62% | inhibition at 1000 µM ([4]; Homo sapiens, HeLa, 1.0 mM, read-out: HeLa Cells % Inh. of Cell Growth): 76% | Lewis Lung Carcinoma % Inh. (Lewis Lung Carcinoma; 6.25 mg/kg): 37% | Lewis Lung Carcinoma Tumor Weight (gms) (Lewis Lung Carcinoma; 6.25 mg/kg): 3.10 ± 0.39 gms | Lewis Lung Carcinoma % Inh. (Lewis Lung Carcinoma; 12.5 mg/kg): 61% | Lewis Lung Carcinoma Tumor Weight (gms) (Lewis Lung Carcinoma; 12.5 mg/kg): 1.94 ± 0.24 gms | % T/C (L1210 Leukemia [5]; 6.26 mg/kg (footnote: i.p. at 6.25 mg/kg 4 times a day, every three hours, days 3-7)): 360.0% | % T/C (L1210 Leukemia [5]; 25 mg/kg: i.p. at 25 mg/Kg/day from day 1-7): 213.3% | B16 Melanoma % Inh. (B16 Melanoma [6]; 6.25 mg/kg): 66% | B16 Melanoma Tumor Weight (gms) (B16 Melanoma [6]; 6.25 mg/kg): 1.68 ± 0.37 gms | B16 Melanoma % Inh. (B16 Melanoma [6]; 12.5 mg/kg): 81% | B16 Melanoma Tumor Weight (gms) (B16 Melanoma [6]; 12.5 mg/kg): 0.95 ± 0.29 gms | B16 Melanoma Cell No. x 10^6 ([7]; 0.001 mM): 14.5 x 10^6 | B16 Melanoma Cell No. x 10^6 ([7]; 0.01 mM): 7.40 x 10^6 | B16 Melanoma Cell No. x 10^6 ([7]; 0.1 mM): 7.42 x 10^6 | B16 Melanoma Cell No. x 10^6 ([7]; 1.0 mM): 0 x 10^6 | inhibition at 1 µM ([7]; Mus musculus, B16, 0.001 mM, read-out: B16 Melanoma % Inh. of Cell Growth): 16% | inhibition at 10 µM ([7]; Mus musculus, B16, 0.01 mM, read-out: B16 Melanoma % Inh. of Cell Growth): 57% | inhibition at 100 µM ([7]; Mus musculus, B16, 0.1 mM, read-out: B16 Melanoma % Inh. of Cell Growth): 57% | inhibition at 1000 µM ([7]; Mus musculus, B16, 1.0 mM, read-out: B16 Melanoma % Inh. of Cell Growth): 100%

NCCCNCCCN [Norspermidine, norspermidine]
% T/C (B16 Melanoma [1]): 133% | Survival (B16 Melanoma [1]): 18.0 days | Polyamine Concentration Spermidine (L1210 Leukemia [2]): 0.69 n·moles/10^6 cells | Polyamine Concentration Spermine (L1210 Leukemia [2]): 0.77 n·moles/10^6 cells | % Inhibition (Lewis Lung Tumor (3LL)): 32% | Tumor Weight (gr) (Lewis Lung Tumor (3LL)): 3.50 gr | Polyamine Concentration Norspermidine (HeLa Cells [8]; 0.005 mM): 5.31 n·moles/10^6 cells | Polyamine Concentration Putriscine (HeLa Cells [8]; 0.005 mM): 0.026 n·moles/10^6 cells | Polyamine Concentration Spermidine (HeLa Cells [8]; 0.005 mM): 0.849 n·moles/10^6 cells | Polyamine Concentration Spermine (HeLa Cells [8]; 0.005 mM): 0.637 n·moles/10^6 cells | Polyamine Concentration Norspermidine (HeLa Cells [8]; 0.05 mM): 4.30 n·moles/10^6 cells | Polyamine Concentration Spermidine (HeLa Cells [8]; 0.05 mM): 0.433 n·moles/10^6 cells | Polyamine Concentration Spermine (HeLa Cells [8]; 0.05 mM): 0.452 n·moles/10^6 cells | Polyamine Concentration Norspermidine (HeLa Cells [8]; 0.5 mM): 6.32 n·moles/10^6 cells | Polyamine Concentration Spermidine (HeLa Cells [8]; 0.5 mM): 0.481 n·moles/10^6 cells | Polyamine Concentration Spermine (HeLa Cells [8]; 0.5 mM): 0.441 n·moles/10^6 cells | % T/C (L1210 Leukemia [3]): 147% | Survival (L1210 Leukemia [3]): 11.0 days | Cell No. x 10^6 (HeLa Cells [9]; 0.005 mM): 0.70 x 10^6 | Mitotic Index (HeLa Cells [9]; 0.005 mM): 74.0 | Cell No. x 10^6 (HeLa Cells [9]; 0.05 mM): 0.64 x 10^6 | Mitotic Index (HeLa Cells [9]; 0.05 mM): 76.7 | Cell No. x 10^6 (HeLa Cells [9]; 0.5 mM): 0.70 x 10^6 | Mitotic Index (HeLa Cells [9]; 0.5 mM): 71.0 | inhibition at 5 µM (HeLa Cells [9]; Homo sapiens, HeLa, 0.005 mM, read-out: % Inhibition of Cell Growth): 61% | inhibition at 50 µM (HeLa Cells [9]; Homo sapiens, HeLa, 0.05 mM, read-out: % Inhibition of Cell Growth): 65% | inhibition at 500 µM (HeLa Cells [9]; Homo sapiens, HeLa, 0.5 mM, read-out: % Inhibition of Cell Growth): 61%

From EP0162413A2, “Polyamine for use as a medicine in the treatment of neoplasms” (MERRELL DOW PHARMACEUTICALS INC., priority 1984, dated 1985)
